The assay has as its system L. donovani-infected THP-1 macrophages, intracellular amastigote imaging. The assay can be described thus: intracellular L. donovani amastigote inhibition, imaging, THP-1 host macrophages, host toxicity (AID 1159564).
Where [1] appears, read: measured here: THP-1 host cell toxicity.
Where [2] appears, read: measured here: amastigotes per macrophage.

Drawing on PubChem BioAssay AID1159564 (GlaxoSmithKline (GSK), 2015), this text covers IC50 for 28 compounds.

SMILES strings stand for the structures. The source made the active and inactive calls. How the calls were made is not given here.

In the case of `Cc1nn(-c2nc(N)nc(-c3ccccn3)n2)c(C)c1Cc1ccccc1`, the IC50 (usually the concentration that inhibits the measured activity by half) was 3.2 µM. In addition, under setting [1], the concentration for half-maximal inhibition (IC50) is over 50 µM. The same compound showed an IC50 under setting [2] of 2.5 µM.
`CN(C)S(=O)(=O)c1cccc(C(=O)Nc2nc(-c3ccccn3)cs2)c1`: the IC50 is 6.3 µM. Besides, the IC50 under setting [1] is 7.9 µM. The same compound had a 50% inhibitory concentration (IC50) under setting [2] of 2.5 µM.
As for `COc1cc(Cl)c(C)cc1NC(=O)c1ccc([N+](=O)[O-])s1`, the half-maximal inhibitory concentration (IC50) was 6.3 µM. In addition, the IC50 under setting [1] is over 50 µM. This compound displayed a half-inhibitory concentration (IC50) under setting [2] of 5 µM.
In the same order, the values of `O=C(Nc1ncc([N+](=O)[O-])s1)C1CC1` are > 50 µM (inactive), over 50 µM and over 50 µM.
In the same order, the values of `COc1ccc(OC)c2c(=O)c(Cc3ccccc3)c(C)[nH]c12` are 4 µM, over 50 µM and 2.5 µM.
As to `O=C(NCCc1csc(-c2ccc(F)cc2)n1)c1ccco1`, the IC50 is > 50 µM (inactive). The compound also displayed an IC50 under setting [1] of over 50 µM. This compound had a concentration for half-maximal inhibition (IC50) under setting [2] of over 50 µM.
In the case of `CC(=O)NCCNc1cc(-c2ccnc(Nc3cccc(Cl)c3)n2)ccn1`, the IC50 was 0.25 µM. Under setting [1], this compound returned a half-inhibitory concentration (IC50) of 0.1 µM. This compound displayed an IC50 under setting [2] of 0.1 µM.
With `OCCCNc1nc(Nc2ccncc2)nc2ccccc12`, the IC50 is > 50 µM (inactive). The compound also gave a half-inhibitory concentration (IC50) under setting [1] of over 50 µM. Further, the IC50 under setting [2] is over 50 µM.
With `Cc1cc(C)c(C#N)c(SCC(=O)c2ccc3c(c2)OCO3)n1`, the IC50 was > 50 µM (inactive). Further, under setting [1], the half-maximal inhibitory concentration (IC50) is over 50 µM. Also, under setting [2], the 50% inhibitory concentration (IC50) is over 50 µM.
For the compound `COc1ccc(NS(=O)(=O)c2cccc(NC(=O)c3cc(F)cc(F)c3)c2)cc1`, the IC50 was > 50 µM (inactive). Moreover, the IC50 under setting [1] was over 50 µM. Also, the IC50 under setting [2] was found to be 20 µM.
The matching figures for `CCc1ccccc1[C@@H](C)NC(=O)c1cnc2c(cnn2CC)c1NC1CCN(C(N)=O)CC1`: > 50 µM (inactive), over 50 µM and over 50 µM.
In the same order, the values of `O=C(NC(CO)c1ccc(F)cc1)c1ccc(-c2c[nH]c3ncccc23)s1` (stereo not drawn) are 25 µM, 10 µM and 20 µM.
In the same order, the values of `Cc1cc(Br)cc(C(=O)c2c(C(C)C)c(=O)[nH]c(=O)n2Cc2ccnc(N)c2)c1` are 32 µM, 40 µM and 20 µM.
With `Cn1c(CN2CCN(c3ncc(C(F)(F)F)cc3Cl)CC2)nc2ccncc21`, the IC50 is > 50 µM (inactive). For the same compound, the 50% inhibitory concentration (IC50) under setting [1] was determined as 6.3 µM.
As for `O=c1ccc2ccc(F)c3c2n1C[C@H]3CN1CCN(CC(O)c2cc3c(cn2)OCS3)CC1` (stereo partly drawn), the IC50 is > 50 µM (inactive). This compound also came in with an IC50 under setting [1] of over 50 µM. For the same compound, under setting [2], the IC50 is over 50 µM.
Turning to `COc1ccc(OC)c(NC(=O)c2ccc([N+](=O)[O-])o2)c1`, the half-maximal inhibitory concentration (IC50) is 32 µM. Under setting [1], the IC50 amounted to 20 µM. For the same compound, under setting [2], the IC50 was 16 µM.
As to `C=CCn1nc([N+](=O)[O-])nc1Oc1ccc(Cl)cc1Cl`, the IC50 is > 50 µM (inactive). Under setting [1], the 50% inhibitory concentration (IC50) stood at 40 µM. The same compound came in with a 50% inhibitory concentration (IC50) under setting [2] of 40 µM.
For `C[C@@H](Oc1cc(-n2cnc3cc(N)ccc32)sc1C(N)=O)c1ccccc1Cl`, the half-inhibitory concentration (IC50) is 32 µM. Under setting [1], this compound came in with an IC50 of 25 µM. For the same compound, under setting [2], the IC50 turned out to be 20 µM.
For the compound `CCOC(=O)c1cn[nH]c1S(=O)(=O)N1CCC1c1ccccc1` (stereo not drawn), the IC50 was > 50 µM (inactive). Moreover, the concentration for half-maximal inhibition (IC50) under setting [1] was over 50 µM. For the same compound, the half-inhibitory concentration (IC50) under setting [2] was over 50 µM.
For `CCc1cc(C(=O)Nc2nccn2-c2ccccc2)cs1`, the IC50 was 13 µM. Under setting [1], this compound came in with a half-inhibitory concentration (IC50) of 32 µM. For the same compound, the half-maximal inhibitory concentration (IC50) under setting [2] worked out at 5 µM.
Turning to `Cc1cccc(NS(=O)(=O)c2cnc3sc(C)cn3c2=O)c1`, the IC50 was > 50 µM (inactive). Also, the concentration for half-maximal inhibition (IC50) under setting [1] is over 50 µM. Under setting [2], this compound had an IC50 of 5 µM.
In the same order, the values of `Fc1ccc(Nc2nc(-c3ccccn3)cs2)cc1` are 10 µM, over 50 µM and 6.3 µM.
Regarding `O=c1cc(CSc2ccc(Cl)cc2)nc(-c2ccccn2)[nH]1`, the IC50 is 5 µM. Further, the half-inhibitory concentration (IC50) under setting [1] is 4 µM. Besides, the IC50 under setting [2] was 2 µM.
On to `O=C(NCCc1csc(-c2ccc(F)cc2)n1)c1cccs1`, for which the IC50 is > 50 µM (inactive). The half-inhibitory concentration (IC50) under setting [1] was over 50 µM. Moreover, the IC50 under setting [2] turned out to be 20 µM.
In the same order, the values of `O=C(Nc1cccc(S(=O)(=O)Nc2ccc(Br)cc2)c1)c1ccc([N+](=O)[O-])s1` are 1 µM, 10 µM and 0.79 µM.
Regarding `O=C(NCCNc1noc(-c2ccc([N+](=O)[O-])cc2)n1)c1ccc(Cl)cc1`, the IC50 was > 50 µM (inactive). In addition, the IC50 under setting [1] is 16 µM. The 50% inhibitory concentration (IC50) under setting [2] was over 50 µM.
Take `COc1cccc(CCNC(=O)C(c2cn[nH]c2)N2CCN(c3ccc(Cl)cc3)CC2)c1` (stereo not drawn): the half-maximal inhibitory concentration (IC50) was 20 µM. Further, the IC50 under setting [1] is 25 µM. The same compound came in with an IC50 under setting [2] of 10 µM.
Turning to `COc1cnc2ccc(=O)n(CCN3CCC(NC(=O)Cc4ccc(Cl)c(Cl)c4)CC3)c2c1`, the IC50 is 40 µM. Under setting [1], this compound gave an IC50 of 25 µM. The IC50 under setting [2] amounted to 5 µM.
